Series [1] concerns Erythrocyte. The experiment in a line: Haemolytic activity in rabbit RBCs at 10 times MIC. Type of series: ADME, cell-based, Oryctolagus cuniculus.
Series [2] deals with Staphylococcus aureus. The series is described as follows: Antibacterial activity against Staphylococcus aureus FDA 209P assessed as bacterial growth inhibition after 20 hrs by liquid microdilution method. Type of series: functional. (In broth dilution the organism is exposed to a series of concentrations in liquid medium.)
Series [3] relates to Bacillus subtilis. The series is described as follows: Antibacterial activity against Bacillus subtilis 168 assessed as bacterial growth inhibition after 20 hrs by liquid microdilution method. Type of series: functional. Particulars: Bacillus subtilis, 168, 20 h.
Series [4] concerns Escherichia coli. The experiment in a line: Antibacterial activity against Escherichia coli K12 W3110 assessed as bacterial growth inhibition after 20 hrs by liquid microdilution method. The following applies: K-12 substr. W3110, 20 h. The class given is functional.
The test system of series [5] is Salmonella typhimurium. The series is described as follows: Antibacterial activity against Salmonella typhimurium LT2 assessed as bacterial growth inhibition after 20 hrs by liquid microdilution method. The class given is functional, Salmonella enterica subsp. enterica serovar Typhimurium. The following applies: Salmonella enterica, LT2, 20 h.
The subject of series [6] is Pseudomonas aeruginosa. The series is described as follows: Antibacterial activity against Pseudomonas aeruginosa PAO1 assessed as bacterial growth inhibition after 20 hrs by liquid microdilution method. Type of series: functional. Particulars: PAO1, 20 h.
Series [7] in a line: Haemolytic activity in rabbit RBCs at 50 uM relative to control. Type of series: ADME, cell-based, Oryctolagus cuniculus, Erythrocyte. The following applies: rabbit red blood cells (erythrocytes), read-out: Activity.
Series [8] can be described thus: Partition coefficient, log P of compound. Type of series: physicochemical. The following applies: octanol/water.
Series [9] relates to Escherichia coli. The series is described as follows: Antimicrobial activity against ESBL-producing Escherichia coli assessed as bacterial growth inhibition after 20 hrs by liquid microdilution method. Type of series: functional.
In series [10] the test system is Escherichia coli. The series is described as follows: Antimicrobial activity against carbapenem-resistant Escherichia coli assessed as bacterial growth inhibition after 20 hrs by liquid microdilution method. Type of series: functional.
Series [11] relates to Pseudomonas aeruginosa. The experiment in a line: Antibacterial activity against carbapenem-reistant Pseudomonas aeruginosa PAO1 assessed as bacterial growth inhibition after 20 hrs by liquid microdilution method. The class given is functional. The following applies: PAO1, 20 h.
The subject of series [12] is Staphylococcus aureus. The experiment in a line: Antibacterial activity against Staphylococcus aureus FDA 209P at sub-MIC treated over 11 serial passages by resistant development assay. Type of series: functional.
Series [13] deals with Escherichia coli. The series is described as follows: Antimicrobial activity against […] at sub-MIC treated by resistant development assay. Particulars: K-12 substr. W3110. Type of series: functional.
For series [14], the system named is Staphylococcus aureus. The series is described as follows: Antibacterial activity against Staphylococcus aureus FDA 209P at sub-MIC by resistant development assay. The class given is functional.
Series [15] relates to Staphylococcus aureus. The experiment in a line: Antibacterial activity against Staphylococcus aureus FDA 209P at sub-MIC treated over 2 serial passages by resistant development assay. Type of series: functional.
Series [16] deals with Staphylococcus aureus. The experiment in a line: Antibacterial activity against Staphylococcus aureus FDA 209P at sub-MIC treated over 4 serial passages by resistant development assay. The class given is functional.
In series [17] the test system is Staphylococcus aureus. The series is described as follows: Induction of membrane permeabilization in Staphylococcus aureus FDA 209P assessed as decrease in cell viability. Type of series: functional, organism-based.
Series [18] concerns Staphylococcus aureus. The series is described as follows: Induction of membrane permeabilization in Staphylococcus aureus FDA 209P assessed as increase in potassium efflux. Type of series: functional, organism-based.
Series [19] relates to Escherichia coli. The series is described as follows: Induction of membrane permeabilization in Escherichia coli K12 W3110 assessed as increase in potassium efflux. Type of series: functional, organism-based.
The test system of series [20] is Escherichia coli. The experiment in a line: Induction of membrane permeabilization in Escherichia coli K12 W3110 assessed as decrease in cell viability. The class given is functional, organism-based.

Consider five compounds from ChEMBL document CHEMBL4334431, “Gramicidin S-inspired antimicrobial cyclodextrin to disrupt gram-negative and gram-positive bacterial membranes” (Medchemcomm, 2019).

Values after ≈ are worked out from the molar mass of the structure shown. Active and inactive are the calls of the source. No cut-off for these calls is given here.

Turning to `CCC(=O)O[C@@H]1[C@@H](OC(=O)CC)[C@H]2O[C@H]3[C@H](OC(=O)CC)[C@@H](OC(=O)CC)[C@@H](O[C@H]4[C@H](OC(=O)CC)[C@@H](OC(=O)CC)[C@@H](O[C@H]5[C@H](OC(=O)CC)[C@@H](OC(=O)CC)[C@@H](O[C@H]6[C@H](OC(=O)CC)[C@@H](OC(=O)CC)[C@@H](O[C@H]7[C@H](OC(=O)CC)[C@@H](OC(=O)CC)[C@@H](O[C@@H]1[C@@H](Cn1cc(CN)nn1)O2)O[C@@H]7Cn1cc(CN)nn1)O[C@@H]6Cn1cc(CN)nn1)O[C@@H]5Cn1cc(CN)nn1)O[C@@H]4Cn1cc(CN)nn1)O[C@@H]3Cn1cc(CN)nn1`, the Activity entry in series [1] is on record as “Non-Toxic”. The minimal inhibitory concentration (MIC) in series [2] worked out at 6 µM (≈ 12.8 µg/mL); in series [3], 3 µM (≈ 6.38 µg/mL); in [4], 3 µM (≈ 6.38 µg/mL); in series [5], 6 µM (≈ 12.8 µg/mL); in series [6], 3 µM (≈ 6.38 µg/mL); in series [9], 5 µM (≈ 10.6 µg/mL). For the same compound, the MIC in series [10] was 5 µM (≈ 10.6 µg/mL); in [11], 5 µM (≈ 10.6 µg/mL); in series [12] it was 6 µM (≈ 12.8 µg/mL); in series [13], 3 to 6 µM (≈ 6.38 to 12.8 µg/mL). Also, the hemolysis at 50 µM in series [7] was found to be 3%. Besides, the logP in series [8] is -0.89.
As to `CCn1cc(C(=O)O)c(=O)c2cc(F)c(N3CCNCC3)cc21` [NORFLOXACIN], the MIC in series [13] lay in the range of 0.2 to 6 µM (≈ 0.0639 to 1.92 µg/mL); in series [14], 0.8 to 3 µM (≈ 0.255 to 0.958 µg/mL).
In the case of `CCC(=O)O[C@@H]1[C@@H](OC(=O)CC)[C@H]2O[C@H]3[C@H](OC(=O)CC)[C@@H](OC(=O)CC)[C@@H](O[C@H]4[C@H](OC(=O)CC)[C@@H](OC(=O)CC)[C@@H](O[C@H]5[C@@H](OC(=O)CC)[C@@H](OC(=O)CC)[C@H](O[C@H]6[C@H](OC(=O)CC)[C@@H](OC(=O)CC)[C@@H](O[C@H]7[C@H](OC(=O)CC)[C@@H](OC(=O)CC)[C@@H](O[C@H]8[C@H](OC(=O)CC)[C@@H](OC(=O)CC)[C@@H](O[C@@H]1[C@@H](Cn1cc(CN)nn1)O2)O[C@@H]8Cn1cc(CN)nn1)O[C@@H]7Cn1cc(CN)nn1)O[C@@H]6Cn1cc(CN)nn1)O[C@@H]5Cn1cc(CN)nn1)O[C@@H]4Cn1cc(CN)nn1)O[C@@H]3Cn1cc(CN)nn1`, the MIC in [2] came out at 5 µM (≈ 12.4 µg/mL); in series [3], 2 µM (≈ 4.96 µg/mL); in [4], 2 µM (≈ 4.96 µg/mL); in series [5] it was 5 µM (≈ 12.4 µg/mL); in series [6], 2 µM (≈ 4.96 µg/mL); in [9], 6 µM (≈ 14.9 µg/mL). Also, the values for the MIC in [10] and in [11] were 11 µM (≈ 27.3 µg/mL) and 6 µM (≈ 14.9 µg/mL), respectively. Besides, the hemolysis at 50 µM in series [7] was determined as 20%. For the same compound, the logP in [8] was -0.89.
As to `C[C@@H]1O[C@@H]1P(=O)(O)O` [FOSFOMYCIN], the MIC was 14 µM (≈ 1.93 µg/mL) in series [15], over 927 µM in series [16] and 58 to 927 µM (≈ 8.01 to 128 µg/mL) in series [13].
For `CCC(=O)O[C@@H]1[C@@H](OC(=O)CC)[C@H]2O[C@H]3[C@H](OC(=O)CC)[C@@H](OC(=O)CC)[C@@H](O[C@H]4[C@H](OC(=O)CC)[C@@H](OC(=O)CC)[C@@H](O[C@H]5[C@H](OC(=O)CC)[C@@H](OC(=O)CC)[C@@H](O[C@H]6[C@H](OC(=O)CC)[C@@H](OC(=O)CC)[C@@H](O[C@H]7[C@H](OC(=O)CC)[C@@H](OC(=O)CC)[C@@H](O[C@H]8[C@H](OC(=O)CC)[C@@H](OC(=O)CC)[C@@H](O[C@H]9[C@H](OC(=O)CC)[C@@H](OC(=O)CC)[C@@H](O[C@@H]1[C@@H](Cn1cc(CN)nn1)O2)O[C@@H]9Cn1cc(CN)nn1)O[C@@H]8Cn1cc(CN)nn1)O[C@@H]7Cn1cc(CN)nn1)O[C@@H]6Cn1cc(CN)nn1)O[C@@H]5Cn1cc(CN)nn1)O[C@@H]4Cn1cc(CN)nn1)O[C@@H]3Cn1cc(CN)nn1`, the outcome in series [17], in series [18], in [19] and in series [20] was Active. For the same compound, the MIC stood at 9 µM (≈ 25.5 µg/mL) in [2]; 2 µM (≈ 5.67 µg/mL) in series [3]; 4 µM (≈ 11.3 µg/mL) in series [4]; 9 µM (≈ 25.5 µg/mL) in [5]; 4 µM (≈ 11.3 µg/mL) in series [6]; 4 µM (≈ 11.3 µg/mL) in series [9]. Moreover, the MIC in series [10] and in series [11] was 9 µM (≈ 25.5 µg/mL) each time. Further, the hemolysis at 50 µM in [7] was determined as 17%. For the same compound, in [8], the logP was -0.89.

Broadly, the MIC is the lowest concentration found to suppress growth. For orientation: logP means the decadic logarithm of the partition coefficient of the neutral form, usually between octanol and water. Read a high logP as a more lipophilic compound.
